In patent US20200216441A1, “PESTICIDALLY ACTIVE HETEROCYCLIC DERIVATIVES WITH SULFUR CONTAINING SUBSTITUENTS” (SYNGENTA PARTICIPATIONS AG, priority 2017, published 2020):

Key:
[1] = tested on: Euschistus heros (Neotropical Brown Stink Bug); assay: whole plant or invertebrate; type: in vivo; conditions: 120 h, application rate of 200 ppm, N2 nymphs on sprayed soybean leaves, 5 days after infestation, read-out: effect in at least one of the two categories (mortality or growth inhibition)
[2] = tested on: Spodoptera littoralis (Egyptian Cotton Leaf Worm); assay: whole plant or invertebrate; conditions: in Gossypium barbadense, foliar, 72 h, read-out: control (mortality, anti-feeding effect, growth inhibition)
[3] = tested on: Myzus persicae (Green Peach Aphid); assay: whole plant or invertebrate; type: in vivo; conditions: 144 h, test rate of 24 ppm, systemic, roots of infested pea seedlings in test solution, 6 days
[4] = tested on: Plutella xylostella (Diamond Back Moth); assay: whole plant or invertebrate; type: in vivo; conditions: 120 h, application rate of 200 ppm, L2 larvae on treated artificial diet, 5 days after infestation, read-out: effect in at least one of the two categories (mortality or growth inhibition)
[5] = tested on: Myzus persicae (Green Peach Aphid); assay: whole plant or invertebrate; conditions: foliar, 144 h
[6] = tested on: Bemisia tabaci (Cotton White Fly); conditions: in Gossypium hirsutum, foliar, 144 h
[7] = tested on: Diabrotica Balteata (Corn Root Worm); assay: Diabrotica balteata (Corn Root Worm); conditions: in Zea mays, 96 h, read-out: effect in at least one of the two categories (mortality or growth inhibition)

CCS(=O)(=O)c1cc(OCCOC)cnc1-c1nc2cc(C(F)(F)F)ncc2n1C [Compound P8, 2-[3-ethylsulfonyl-5-(2-methoxyethoxy)-2-pyridyl]-3-methyl-6-(trifluoromethyl)imidazo[4,5-c]pyridine]
≥ 80%: percent effect (mortality or growth inhibition) at 200 ppm [1] | mortality at 200 ppm [2] | mortality at 24 ppm [3] | percent effect (mortality or growth inhibition) at 200 ppm [4] | mortality at 200 ppm [5] | mortality at 200 ppm [6] | mortality at 200 ppm [7]

CCS(=O)(=O)c1cc(OCCSC)cnc1-c1nc2cc(C(F)(F)F)ncc2n1C [Compound P11, 2-[3-ethylsulfonyl-5-(2-methylsulfanylethoxy)-2-pyridyl]-3-methyl-6-(trifluoromethyl)imidazo[4,5-c]pyridine]
≥ 80%: percent effect (mortality or growth inhibition) at 200 ppm [1] | mortality at 200 ppm [2] | mortality at 24 ppm [3] | mortality at 200 ppm [5] | mortality at 200 ppm [6]

CCS(=O)(=O)c1cc(OCC(F)(F)F)cnc1-c1nc2cc(C(F)(F)F)ncc2n1C [Compound P15, 2-[3-ethylsulfonyl-5-(2,2,2-trifluoroethoxy)-2-pyridyl]-3-methyl-6-(trifluoromethyl)imidazo[4,5-c]pyridine]
≥ 80%: percent effect (mortality or growth inhibition) at 200 ppm [1] | mortality at 200 ppm [2] | mortality at 24 ppm [3] | percent effect (mortality or growth inhibition) at 200 ppm [4] | mortality at 200 ppm [5] | mortality at 200 ppm [6] | mortality at 200 ppm [7]

CCS(=O)(=O)c1cc(OCC(F)F)cnc1-c1nc2cc(C(F)(F)F)ncc2n1C [Compound P16, 2-[5-(2,2-difluoroethoxy)-3-ethylsulfonyl-2-pyridyl]-3-methyl-6-(trifluoromethyl)imidazo[4,5-c]pyridine]
≥ 80%: percent effect (mortality or growth inhibition) at 200 ppm [1] | mortality at 200 ppm [2] | mortality at 24 ppm [3] | percent effect (mortality or growth inhibition) at 200 ppm [4] | mortality at 200 ppm [5] | mortality at 200 ppm [6] | mortality at 200 ppm [7]

CCS(=O)(=O)c1cc(OCC(C)(C)C)cnc1-c1nc2cc(C(F)(F)F)ncc2n1C [Compound P26, 2-[5-(2,2-dimethylpropoxy)-3-ethylsulfonyl-2-pyridyl]-3-methyl-6-(trifluoromethyl)imidazo[4,5-c]pyridine]
≥ 80%: mortality at 200 ppm [2] | percent effect (mortality or growth inhibition) at 200 ppm [4] | mortality at 200 ppm [5] | mortality at 200 ppm [6] | mortality at 200 ppm [7]

CCS(=O)(=O)c1cc(OC(C)(C)CF)cnc1-c1nc2cc(C(F)(F)F)ncc2n1C [Compound P30, 2-[3-ethylsulfonyl-5-(2-fluoro-1,1-dimethyl-ethoxy)-2-pyridyl]-3-methyl-6-(trifluoromethyl)imidazo[4,5-c]pyridine]
≥ 80%: percent effect (mortality or growth inhibition) at 200 ppm [1] | mortality at 200 ppm [2] | mortality at 24 ppm [3] | percent effect (mortality or growth inhibition) at 200 ppm [4] | mortality at 200 ppm [5] | mortality at 200 ppm [6] | mortality at 200 ppm [7]

CCS(=O)(=O)c1cc(OC(C)F)cnc1-c1nc2cc(C(F)(F)F)ncc2n1C (stereo not drawn) [Compound P40, 2-[3-ethylsulfonyl-5-(1-fluoroethoxy)-2-pyridyl]-3-methyl-6-(trifluoromethyl)imidazo[4,5-c]pyridine]
≥ 80%: percent effect (mortality or growth inhibition) at 200 ppm [1] | mortality at 200 ppm [2] | mortality at 24 ppm [3] | percent effect (mortality or growth inhibition) at 200 ppm [4] | mortality at 200 ppm [5] | mortality at 200 ppm [6] | mortality at 200 ppm [7]

CCS(=O)(=O)c1cc(OC2CC(F)(F)C2)cnc1-c1nc2cc(C(F)(F)F)ncc2n1C [Compound P42, 2-[5-(3,3-difluorocyclobutoxy)-3-ethylsulfonyl-2-pyridyl]-3-methyl-6-(trifluoromethyl)imidazo[4,5-c]pyridine]
≥ 80%: percent effect (mortality or growth inhibition) at 200 ppm [1] | mortality at 200 ppm [2] | mortality at 24 ppm [3] | percent effect (mortality or growth inhibition) at 200 ppm [4] | mortality at 200 ppm [5] | mortality at 200 ppm [6] | mortality at 200 ppm [7]

CCS(=O)(=O)c1cc(O[C@H]2C[C@@H](C#N)C2)cnc1-c1nc2cc(C(F)(F)F)ncc2n1C [Compound P46, 3-[[5-ethylsulfonyl-6-[3-methyl-6-(trifluoromethyl)imidazo[4,5-c]pyridin-2-yl]-3-pyridyl]oxy]cyclobutanecarbonitrile]
≥ 80%: percent effect (mortality or growth inhibition) at 200 ppm [1] | mortality at 24 ppm [3] | percent effect (mortality or growth inhibition) at 200 ppm [4] | mortality at 200 ppm [5] | mortality at 200 ppm [6] | mortality at 200 ppm [7]

CCS(=O)(=O)c1cc(OC(C)(C)CSC)cnc1-c1nc2cc(C(F)(F)F)ncc2n1C [Compound P50, 2-[5-(1,1-dimethyl-2-methylsulfanyl-ethoxy)-3-ethylsulfonyl-2-pyridyl]-3-methyl-6-(trifluoromethyl)imidazo[4,5-c]pyridine]
≥ 80%: percent effect (mortality or growth inhibition) at 200 ppm [1] | mortality at 24 ppm [3] | percent effect (mortality or growth inhibition) at 200 ppm [4] | mortality at 200 ppm [5] | mortality at 200 ppm [6] | mortality at 200 ppm [7]

CCS(=O)(=O)c1cc(OC[Si](C)(C)C)cnc1-c1nc2cc(C(F)(F)F)ncc2n1C [Compound P61, [5-ethylsulfonyl-6-[3-methyl-6-(trifluoromethyl)imidazo[4,5-c]pyridin-2-yl]-3-pyridyl]oxymethyl-trimethyl-silane]
≥ 80%: mortality at 200 ppm [2] | mortality at 200 ppm [5] | mortality at 200 ppm [6] | mortality at 200 ppm [7]

CCS(=O)(=O)c1cc(OCC2CC2(F)F)cnc1-c1nc2cc(C(F)(F)F)ncc2n1C (stereo not drawn) [Compound P67, 2-[5-[(2,2-difluorocyclopropyl)methoxy]-3-ethylsulfonyl-2-pyridyl]-3-methyl-6-(trifluoromethyl)imidazo[4,5-c]pyridine]
≥ 80%: percent effect (mortality or growth inhibition) at 200 ppm [1] | mortality at 200 ppm [2] | percent effect (mortality or growth inhibition) at 200 ppm [4] | mortality at 200 ppm [5] | mortality at 200 ppm [6] | mortality at 200 ppm [7]

CCS(=O)(=O)c1cc(OCCCC#N)cnc1-c1nc2cc(C(F)(F)F)ncc2n1C [Compound P70, 4-[[5-ethylsulfonyl-6-[3-methyl-6-(trifluoromethyl)imidazo[4,5-c]pyridin-2-yl]-3-pyridyl]oxy]butanenitrile]
≥ 80%: percent effect (mortality or growth inhibition) at 200 ppm [1] | mortality at 200 ppm [2] | mortality at 24 ppm [3] | percent effect (mortality or growth inhibition) at 200 ppm [4] | mortality at 200 ppm [5] | mortality at 200 ppm [6]

CCS(=O)(=O)c1cc(OC(C)C)cnc1-c1nc2cc(S(=O)(=O)C(F)(F)F)ncc2n1C [Compound P72, 2-(3-ethylsulfonyl-5-isopropoxy-2-pyridyl)-3-methyl-6-(trifluoromethylsulfonyl)imidazo[4,5-c]pyridine]
≥ 80%: percent effect (mortality or growth inhibition) at 200 ppm [1] | mortality at 200 ppm [2] | mortality at 24 ppm [3] | percent effect (mortality or growth inhibition) at 200 ppm [4] | mortality at 200 ppm [5] | mortality at 200 ppm [6] | mortality at 200 ppm [7]

CCS(=O)(=O)c1cc(OCC(C)C)cnc1-c1nc2cc(C(F)(F)F)ncc2n1C [Compound P75, 2-(3-ethylsulfonyl-5-isobutoxy-2-pyridyl)-3-methyl-6-(trifluoromethyl)imidazo[4,5-c]pyridine]
≥ 80%: percent effect (mortality or growth inhibition) at 200 ppm [1] | mortality at 200 ppm [2] | mortality at 24 ppm [3] | percent effect (mortality or growth inhibition) at 200 ppm [4] | mortality at 200 ppm [5] | mortality at 200 ppm [6] | mortality at 200 ppm [7]

CCS(=O)(=O)c1cc(OC(C)(C)C(N)=O)cnc1-c1nc2cc(C(F)(F)F)ncc2n1C [Compound P89, 2-[[5-ethylsulfonyl-6-[3-methyl-6-(trifluoromethyl)imidazo[4,5-c]pyridin-2-yl]-3-pyridyl]oxy]-2-methyl-propanamide]
≥ 80%: percent effect (mortality or growth inhibition) at 200 ppm [1] | mortality at 24 ppm [3] | percent effect (mortality or growth inhibition) at 200 ppm [4] | mortality at 200 ppm [5] | mortality at 200 ppm [6] | mortality at 200 ppm [7]

CCS(=O)(=O)c1cc(OC(CF)CF)ccc1-c1nc2cc(C(F)(F)F)ncc2n1C [Compound P100, 2-[2-ethylsulfonyl-4-[2-fluoro-1-(fluoromethyl)ethoxy]phenyl]-3-methyl-6-(trifluoromethyl)imidazo[4,5-c]pyridine]
≥ 80%: percent effect (mortality or growth inhibition) at 200 ppm [1] | mortality at 200 ppm [2] | mortality at 24 ppm [3] | percent effect (mortality or growth inhibition) at 200 ppm [4] | mortality at 200 ppm [5] | mortality at 200 ppm [6] | mortality at 200 ppm [7]

CCS(=O)(=O)c1cc(OCC2(C#N)CC2)ccc1-c1nc2cc(C(F)(F)F)ncc2n1C [Compound P101, 1-[[3-ethylsulfonyl-4-[3-methyl-6-(trifluoromethyl)imidazo[4,5-c]pyridin-2-yl]phenoxy]methyl]cyclopropanecarbonitrile]
≥ 80%: percent effect (mortality or growth inhibition) at 200 ppm [1] | mortality at 200 ppm [2] | mortality at 24 ppm [3] | percent effect (mortality or growth inhibition) at 200 ppm [4] | mortality at 200 ppm [5] | mortality at 200 ppm [6] | mortality at 200 ppm [7]
